Laboratory results as given in PMC12121777 (PLOS One, 2025).
≈ marks a conversion by molar mass, not a printed value. Where two headings read alike, the source gives them in different places.

Key:
Mtb 331/88 (i.e., H37Rv) = test: MIC, micro method in Šula's semisynthetic medium, drug-susceptible Mtb; assay type: cell-based, Mycobacterium tuberculosis; conditions: Mycobacterium tuberculosis, H37RV
[1] = system: Mycobacterium avium 330/88; test: MIC, micro method in Šula's semisynthetic medium, M. avium; assay type: cell-based
[2] = system: Mycobacterium kansasii 6509/96; test: MIC, micro method in Šula's semisynthetic medium, M. kansasii clinical isolate; assay type: cell-based; conditions: read-out: MIC M. kansasii 6509/96
Mtb H37Ra pVV2 = test: microbe, parasite or virus in culture; assay type: cell-based; conditions: Mycobacterium tuberculosis, 672 h, 28 days
Mtb H37Ra pVV2-dprE2 = test: microbe, parasite or virus in culture; assay type: cell-based; conditions: Mycobacterium tuberculosis, 672 h, 28 days
[3] = system: Mtb H37Ra pVV2-dprE1/dprE2; test: microbe, parasite or virus in culture; assay type: cell-based; conditions: Mycobacterium tuberculosis, 672 h, 28 days
HepG2 cells = test: Cytotoxicity on HepG2 cell line (CellTiter 96); assay type: cell-based, human; conditions: Homo sapiens, read-out: IC50 HepG2
Danio rerio embryos = test: Fish embryo test (FET); assay type: in vivo; conditions: for mortality: as early as 48 h; for lethality: end of the 96 hours; for observed lethal endpoints: 0.001–100 µM, 96-hour exposure; for embryo coagulation, share of all observed endpoints: whole exposure period
Method: Fish maintenance. A day before the experiment, adult wild-type zebrafish (Danio rerio) were transferred into plastic spawning cages at the end of the 14-hour photoperiod. All fish were spawned at the onset of the following photoperiod. Fertilized eggs were collected within 30 minutes post-fertilization and inspected for health state and developmental stage using a stereomicroscope before exposure to 5g and 4h. Tested compounds were dissolved in DMSO; its concentration in 1 mM stock solution was 0.5%.
Fish embryo test (FET). Fish embryo tests were carried out using six different concentrations (0.001, 0.01, 0.1, 1, 10, and 100 μM) of each of the tested substances and controls over 96 hours at a constant temperature of 26.9°C (±1°C) under semi-static experimental set-up. The used medium was E3 according to Cold Spring Harbor Protocols (5 mM NaCl, 0.17 mM KCl, 0.33 mM CaCl2, 0.33 mM MgSO4). Each FET consists of 24 embryos per concentration, where each embryo is considered an individual replicate. Before the tests, all wells in the testing culture well plates were saturated by overnight incubation with corresponding concentrations of 5g and 4h. Before loading the embryos into the well plates, all solutions were replaced by freshly aerated ones with corresponding concentrations or controls. All solutions in the well plates were changed again after 48 hours of exposure to minimize a potential reduction in oxygen levels and compound concentration. Fish embryos were inspected and scored for mortality, morphological changes, or hatching success rates at 24-, 48-, 72-, and 96-hours post-exposure (hpe) under an inverted microscope (Olympus IX71; Olympus Czech Group, s.r.o., Czech Republic). […] In comparison, > 90% of the embryos in the positive control (3,4-dichloroaniline) were considered dead at the end of the 96-hour exposure. Morphological endpoints in our analysis were: (1) coagulation of fertilised eggs or developing embryos; (2) lack of somite formation; (3) lack of detachment of the tail bud from the yolk sac; (4) lack of heartbeat or heart defects (oedema); (5) malformations of body parts (head and tail region); (6) growth retardation. All morphological endpoints were used to determine the mortality (a positive endpoint means the embryo was considered dead).
For both compounds, the negative controls involved pure E3 medium and E3 medium containing 0.05% DMSO.

Mtb H37Rv = test: Metabolic labeling with 14C acetate and TLC lipid analysis; conditions: 10× and 100× MIC, 14C acetate, 24 h
Bacillus subtilis = system: Bacillus subtilis; set-up: method as in PMID 30988267; conditions: cited from earlier work
Staphylococcus aureus = system: Staphylococcus aureus; set-up: method as in PMID 30988267; conditions: cited from earlier work
Mtb = system: Mtb; set-up: method as in PMID 33462533; conditions: cited from earlier work
[4] = 330/88, 336 h, read-out: MIC M. avium 330/88
[5] = 330/88, 504 h, read-out: MIC M. avium 330/88

CCCCCCCCNC(=O)NNC(=O)c1cc([N+](=O)[O-])cc([N+](=O)[O-])c1 [Compound 4h, 2-(3,5-Dinitrobenzoyl)-N-octylhydrazine-1-carboxamide]
MIC (Mtb 331/88 (i.e., H37Rv); 336 h, 14 days): 0.25 µM (≈ 0.0953 µg/mL)
MIC (Mtb 331/88 (i.e., H37Rv); 504 h, 21 days): 0.5 µM (≈ 0.191 µg/mL)
MIC [1, 4]: 125 µM (≈ 47.7 µg/mL)
MIC [1, 5]: 250 µM (≈ 95.3 µg/mL)
MIC ([1]; 330/88, read-out: MIC M. avium): 125 to 250 µM (≈ 47.7 to 95.3 µg/mL)
MIC ([2]; 6509/96, 168 h): 1 µM (≈ 0.381 µg/mL)
MIC ([2]; 6509/96, 336 h): 1 µM (≈ 0.381 µg/mL)
MIC ([2]; 6509/96, 504 h): 1 µM (≈ 0.381 µg/mL)
MIC (Mtb H37Ra pVV2): < 0.5 µM
MIC (Mtb H37Ra pVV2-dprE2): < 0.5 µM
MIC [3]: > 2.5 µM
IC50 (HepG2 cells; HepG2, 24 h): 136 µM
mortality at 1 µM (Danio rerio embryos): no significant mortality
mortality (Danio rerio embryos; 10 µM): 100%
mortality (Danio rerio embryos; 100 µM): 100%
lethality (Danio rerio embryos; 100 µM): 100%
observed lethal endpoints (Danio rerio embryos): embryo coagulation and growth retardation
embryo coagulation, share of all observed endpoints (Danio rerio embryos): > 35%
lipid profile of treated cells vs untreated cells (Mtb H37Rv): accumulation of TMM and TDM

CCCCCCCCCCCCNC(=S)NNC(=O)c1cc([N+](=O)[O-])cc([N+](=O)[O-])c1 [Compound 4s, 2-(3,5-Dinitrobenzoyl)-N-dodecylhydrazine-1-carbothioamide]
MIC (Mtb 331/88 (i.e., H37Rv); 336 h, 14 days): 2 µM (≈ 0.907 µg/mL)
MIC (Mtb 331/88 (i.e., H37Rv); 504 h, 21 days): 2 µM (≈ 0.907 µg/mL)
MIC [1, 4]: 16 µM (≈ 7.26 µg/mL)
MIC [1, 5]: 16 µM (≈ 7.26 µg/mL)
MIC ([2]; 6509/96, 168 h): 1 µM (≈ 0.454 µg/mL)
MIC ([2]; 6509/96, 336 h): 1 µM (≈ 0.454 µg/mL)
MIC ([2]; 6509/96, 504 h): 2 µM (≈ 0.907 µg/mL)
MIC (Mtb H37Ra pVV2): 2 µM (≈ 0.907 µg/mL)
MIC (Mtb H37Ra pVV2-dprE2): 2 µM (≈ 0.907 µg/mL)
MIC [3]: > 4 µM
lipid profile of treated cells vs untreated cells (Mtb H37Rv): accumulation of TMM and TDM

CCCCCCCNc1nnc(-c2cc([N+](=O)[O-])cc([N+](=O)[O-])c2)o1 [Compound 5g, 5-(3,5-Dinitrophenyl)-N-heptyl-1,3,4-oxadiazol-2-amine]
MIC (Mtb 331/88 (i.e., H37Rv); 336 h, 14 days): ≤ 0.03 µM
MIC (Mtb 331/88 (i.e., H37Rv); 504 h, 21 days): ≤ 0.03 µM
MIC [1, 4]: 4 µM (≈ 1.4 µg/mL)
MIC [1, 5]: 8 µM (≈ 2.79 µg/mL)
MIC ([2]; 6509/96, 168 h): ≤ 0.03 µM
MIC ([2]; 6509/96, 336 h): 0.06 µM (≈ 0.021 µg/mL)
MIC ([2]; 6509/96, 504 h): 0.125 µM (≈ 0.0437 µg/mL)
MIC (Mtb H37Ra pVV2): < 0.06 µM
MIC (Mtb H37Ra pVV2-dprE2): < 0.06 µM
MIC [3]: > 0.3 µM
IC50 (HepG2 cells; HepG2, 24 h): > 100 µM
mortality at 1 µM (Danio rerio embryos): no significant mortality
mortality (Danio rerio embryos; 10 µM): 100%
mortality (Danio rerio embryos; 100 µM): 100%
lethality (Danio rerio embryos; 100 µM): 100%
observed lethal endpoints (Danio rerio embryos): pericardial oedema at lower concentrations and by growth retardation at higher concentrations
embryo coagulation, share of all observed endpoints (Danio rerio embryos): > 25%
lipid profile of treated cells vs untreated cells (Mtb H37Rv): accumulation of TMM and TDM

CCCCCCCCCCCCNc1nnc(-c2cc([N+](=O)[O-])cc([N+](=O)[O-])c2)s1 [Compound 5s, 5-(3,5-Dinitrophenyl)-N-dodecyl-1,3,4-thiadiazol-2-amine]
MIC (Mtb 331/88 (i.e., H37Rv); 336 h, 14 days): 1 µM (≈ 0.436 µg/mL)
MIC (Mtb 331/88 (i.e., H37Rv); 504 h, 21 days): 1 µM (≈ 0.436 µg/mL)
MIC [1, 4]: 64 µM (≈ 27.9 µg/mL)
MIC [1, 5]: 125 µM (≈ 54.4 µg/mL)
MIC ([2]; 6509/96, 168 h): 1 µM (≈ 0.436 µg/mL)
MIC ([2]; 6509/96, 336 h): 1 µM (≈ 0.436 µg/mL)
MIC ([2]; 6509/96, 504 h): 1 µM (≈ 0.436 µg/mL)
MIC (Mtb H37Ra pVV2): < 0.1 µM
MIC (Mtb H37Ra pVV2-dprE2): < 0.1 µM
MIC [3]: 0.5 µM (≈ 0.218 µg/mL)
lipid profile of treated cells vs untreated cells (Mtb H37Rv): accumulation of TMM and TDM

NNC(=O)c1ccncc1 [INH, isoniazid, reference compound]
MIC (Mtb 331/88 (i.e., H37Rv); 336 h, 14 days): 0.5 µM (≈ 0.0686 µg/mL)
MIC (Mtb 331/88 (i.e., H37Rv); 504 h, 21 days): 0.5 µM (≈ 0.0686 µg/mL)
MIC ([1]; 330/88, 336 h, 14 days, * = growth still observed at this concentration, turbidity or precipitate above, read-out: MIC M. avium 330/88): > 250 µM
MIC ([1]; 330/88, 504 h, 21 days, * = growth still observed at this concentration, turbidity or precipitate above, read-out: MIC M. avium 330/88): > 250 µM
MIC ([2]; 6509/96, 168 h, 7 days): 4 µM (≈ 0.549 µg/mL)
MIC ([2]; 6509/96, 336 h, 14 days): 8 µM (≈ 1.1 µg/mL)
MIC ([2]; 6509/96, 504 h, 21 days): 8 µM (≈ 1.1 µg/mL)
IC50 (HepG2 cells; HepG2, 24 h incubation): > 1000 µM

Cc1ccc(-c2nnc(NC(=O)c3ccc([N+](=O)[O-])cc3)o2)cc1 [IX]
MIC (Bacillus subtilis): 780 µg/mL (≈ 2410 µM)

Cc1ccc(C(=O)Nc2nnc(-c3ccc(C)cc3)o2)cc1 [VIII]
MIC (Staphylococcus aureus): 1560 µg/mL (≈ 5320 µM)

O=C(Nc1nnc(COc2ccccc2)o1)c1ccc([N+](=O)[O-])cc1 [X]
MIC (Bacillus subtilis): 780 µg/mL (≈ 2290 µM)

O=c1nc(N2CCN(CC3CCCCC3)CC2)sc2c([N+](=O)[O-])cc(C(F)(F)F)cc12 [macozinone]
MIC for Mtb (Mtb): 0.002 µM
